Like-named read-outs stand apart in the source and are kept apart here.
Assays:
[1] = amorphous form; cited from earlier work
[2] = in accordance with WO 2010/114928 and WO 2010/129570; cited from earlier work

CCCS(=O)(=O)Nc1ccc(F)c(C(=O)c2c[nH]c3ncc(-c4ccc(Cl)cc4)cc23)c1F [Amorphous Vemurafenib]
Stability (in words) [1]: not stable

CCCS(=O)(=O)Nc1ccc(F)c(C(=O)c2c[nH]c3ncc(-c4ccc(Cl)cc4)cc23)c1F.C[N+](C)(C)CCO [Vemurafenib Choline crystalline C1]
Period stable upon storage (45° C. and 75% relative humidity (RH)): at least 2 weeks
Period stable upon storage (ambient conditions (room temperature and atmospheric humidity)): at least 7 months

CCCS(=O)(=O)Nc1ccc(F)c(C(=O)c2c[nH]c3ncc(-c4ccc(Cl)cc4)cc23)c1F [Vemurafenib, propane-1-sulfonic acid {3-[5-(4-chlorophenyl)-1H-pyrrolo[2,3-b]pyridine-3-carbonyl]-2,4-difluoro-phenyl}-amide]
Solubility (in words) [2]: extremely low solubility

From patent US9221815B2, “Solid state form of vemurafenib choline salt” (ratiopharm GmbH, priority 2012, dated 2015)
